Data reported in EP0097070A2, “Process for preparing ellipticine derivatives, compounds so obtained and medicaments containing them” (ELF SANOFI, priority 1982, dated 1983).
Read-outs that look alike come from different tables or passages of the source.

Assays:
[1] = system: cellules leucémiques L 1210; experiment: Cytotoxicity: growth inhibition of L 1210 cells in culture; assay type: cell-based; conditions: concentration giving 50 p. 100 inhibition of cell multiplication, 48 hours of culture, DMSO 1 p. 100 final, read-out: ID50 (the source's name)
Text: Les substances à étudier sont dissoutes dans du DMSO (1 p. 100 final) dont on a préalablement vérifié l'innocuité. Des quantités croissantes du produit à tester sont ajoutées au temps ? des numérations sont faites après 24 heures et 48 heures de contact. Des sérias témoins sont constituées avec ces quantités de DMSO équivalentes à celles des séries traitées. […] 5 Le pourcentage d'inhibition de la croissance cellulaire est déterminé par le rapport […] de croissance du témoin sur […] de croissance des essais pour différentes concentrations de produit à tester après 24 heures et 48 heures de culture Une relation dose effet est déterminée selon […] et WILCOXON (C. DUPONT, […].

[2] = system: souris femelles de type DSA/2; conditions: mouse, in vivo, ip, 43200 min
Text: Cette étude, effectuée sur des souris femelles de type DSA/2 d'un poids corporel moyen de 20 g a permis de déterminer la DL0, qui représente la dose unique maximum administrable par une injection intrapéritonéale sans qu'aucune mort intervienne dans les 30 jours qui suivent l'administration du produit.

[3] = system: cellules tumorales L 1210; experiment: Antitumour effect: increase in life span of mice inoculated with L 1210 cells; assay type: in vivo, souris; conditions: 10^5 L 1210 cells i.p.; compound i.p. at dose DL0/2 (half the LD0 dose), 20 hours after inoculation; versus control animals; significant if above 25 p. 100
Text: Les cellules tumorales L 1210 sont inoculées par la voie intrapéritonéale à ces souris femelles OBA/2 d'un poids corporel moyen de 20g en une injection unique de 10^5 cellules; chez les animaux traités, le composé étudié est injecté à la dose de OL0/2 également par la voie intrapéritonéale 20 heures après la première injection des cellules L 1210.
L'effet antitumoral est apprécié par la détermination de l'augmentation de la durée de survie (ILS : increase in life Span) des animaux traités par rapport aux animaux témoins qui n'ont reçu que les cellules tumorales.
L'augmentation de la durée de survie est considérée comme significative lorsqu'elle est supérieure à 25 p. 100.
Les résultats obtenus sont consignés dans le tableau suivant qui indique pour les dérivés testés, le pourcentage d'augmentation de la durée de survie par rapport au témoin.

Compound	IC50 [1]	IC50 ([1]; Mus musculus, L1210)	DL0 [2]	POURCENTAGE D'AUGMENTATION DE LA DUREE DE SURVIE (ILS) [3]
acétate de méthyl -2 oxo -9 (guanylyl -5' -P)-10 ellipticinium [dérivé n° 13]	> 1000 nM			
CC(=O)NC(CSc1c(O)ccc2[nH]c3c(C)c4cc[n+](C)cc4c(C)c3c12)C(=O)O (stereo not shown) [dérivé n° 8, Hexafluorophosphate de méthyl-2 hydroxy-9 N-acétyl cystéin-10 ellipticinium]		1120 nM		
acétate de méthyl-2 oxo -9 (adényl -5'-P)-10 ellioticinium [dérivé n° 12]	> 800 nM			
acétate de méthyl-2 oxo-9 guanosyl-10 ellipticinium [dérivé n° 11]	760 nM			
Cc1c2cc[n+](C)cc2c(C)c2c1[nH]c1ccc(O)c(N=C(C(=O)O)C(C)C)c12 [dérivé n° 2, acétate de méthyl-2 hydroxy-9 valine 10 ellipticinium]		310 nM	15 mg/kg	31,3 p. 100
Cc1c2cc[n+](C)cc2c(C)c2c1[nH]c1ccc(O)c(N=C(Cc3c[nH]cn3)C(=O)O)c12 [dérivé n° 4]		2460 nM		
CC(=Nc1c(O)ccc2[nH]c3c(C)c4cc[n+](C)cc4c(C)c3c12)C(=O)O [dérivé n° 5, scétate ce méthyl-2 hydroxy-9 elanine-10 ellipricinium]		200 nM	20 mg/kg	
Cc1c2cc[n+](C)cc2c(C)c2c1[nH]c1ccc(O)c(N=C(CCC(=O)O)C(=O)O)c12 [dérivé n° 6, acétate de méthyl-2 hydroxy-9 glutamyle-10 ellipticinium]		23500 nM		
acétate de méthyl-2 oxo-9 adényl-10 ellipticinium [dérivé n° 10]	500 nM			
Hexafluorophosphate de méthyl-2 hydroxy-8 méthylcystéine-10 ellipticinium [dérivé n° 7]	790 nM			
Cc1c2cc[n+](C)cc2c(C)c2c1[nH]c1ccc(O)c(N=CC(=O)O)c12 [dérivé n° 3]		540 nM	20 mg/kg	
Cc1c2cc[n+](C)cc2c(C)c2c1[nH]c1ccc(O)c(N=C(CC(C)C)C(=O)O)c12 [dérivé n° 1, acétate es méthyl-2 hydroxy-9 leucine-10, elliopticinium]		280 nM	10 mg/kg	35 p. 100
Cc1c2cc[n+](C)cc2c(C)c2c1[nH]c1ccc(O)c(SCC(NC(=O)CCC(N)C(=O)O)C(=O)NCC(=O)O)c12 (stereo not shown) [dérivé n° 9, hexafluorophosphata de méthyl-2 hydroxy-9 glutathion-10 ellipticinium]		1610 nM		
